# According to patent publication US6716810B1, “Composition and method for regulation of body weight and associated conditions” (Eleanor Roosevelt Institute, priority 1998, dated 2004):
# Entries after “also recorded” stand apart in the source; their conditions may differ.
# B1: leptin: recombinant mouse leptin, product of the ob gene, provided through the National Hormone and Pituitary Program (protein, UniProt P41160 22-167, looked up)
# Leptin: VPIQKVQDDTKTLIKTIVTRINDISHTQSVSAKQRVTGLDFIPGLHPILSLSKMDQTLAVYQQVLTSLPSQNVLQIANDLENLRDLLHLLAFSKSCSLPQTSGLQKPESLDGVLEASLYSTEVVALSRLQGSLQDILQQLDVSPEC
# Assays:
# Format in all cases: in vivo, mouse
# ob/ob mutant mice [1] = test: Weight gain and food intake in ob/ob mutants treated with leptin, MSH analog or both (Example 5)
# Method: Leptin deficient (ob/ob) mutants show both hyperphagia and “increased metabolic efficiency” as witnessed by their ability to gain weight even when pair-fed with normal congenic controls. To determine the effects of leptin and MSH on food intake and weight gain, four sets of ob/ob mutants were treated with leptin, an MSH analog, both together, or vehicle alone. The MSH analog [Ac-Cys^4, D-Phe^7, Cys^10]α-MSH (4-13) was purchased from Peninsula Laboratories (Belmont, Calif.). Mice were treated with daily injections of 7 micrograms of each, both or neither.
# ob/ob mutant mice [2] = test: Core temperature of ob/ob mutants exposed to 4° C. after MSH analog (Example 5); conditions: 7 micrograms; 5 hours without food, then 4° C. for 65 minutes; v. vehicle
# Method: In 1977, the decreased ability of ob/ob mutants to maintain body temperature at 4° C. was noted. This preceded the onset of obesity in these mice. In view of the evidence that MSH regulates adipocyte metabolism, the present inventors hypothesized that the low levels of circulating MSH in leptin deficient (ob/ob) mutants was responsible for the impaired thermal regulation. To test this, ob/ob mutants were injected with 7 micrograms of MSH analog or vehicle only as described above. The mice were left without food for 5 hours and then exposed to 4° C. for 65 minutes. Their core temperatures were measured periodically by transfer to a coldroom (4° C.) where core temperatures were measured using a digital thermometer fitted with a rectal probe (Atkins Technical Inc., Gainesville, Fla.). […] As the mice had no opportunity to eat between injection of the MSH analog and the cold challenge, food intake cannot be responsible for the altered thermal regulation.
# obese lep^ob/ob mice = test: Weight change in obese lep ob/ob mice treated with leptin, α-MSH analog or both (Example 4); conditions: 3 μg of each compound i.p. once daily; mice aged 2 months
# Method: To assess a more general effect of peripheral melanocortin on adipocytes, another genetic form of obesity, in lep^ob/ob mice, was treated with the α-MSH analog. In this experiment, the mice received leptin or the α-MSH analog alone, and in combination.
# Briefly, obese lep^ob/ob mice at age 2 months (2 per group) received daily either: (1) 3 μg of α-MSH analog (described in Examples 2 and 3 above); (2) 3 μg of recombinant mouse leptin; (3) 3 μg of α-MSH analog and 3 μg of recombinant mouse leptin in combination; or (4) saline. The compounds were delivered intraperitoneally once daily, 1-2 hours before the onset of darkness.
# wildtype female mice = test: Daily intraperitoneal MSH analog in wildtype littermates: body weight, food intake (Example 2); conditions: for weight loss in wildtype littermates: 1 microgram i.p. daily, 16-day treatment
# Method: (§1) To test initially for the effect of peripheral melanocortins on weight change, we selected the stable agonist [Ac-Cys^4, D-Phe^7, Cys^10]α-MSH (4-13) (described in Cody et al., 1985, J. Med. Chem. 28, 583-588; incorporated herein by reference in its entirety). Briefly, [Ac-Cys^4, D-Phe^7, Cys^10]α-MSH (4-13) amide, having the cysteines connected by a disulfide bridge, was obtained from Peninsula Laboratories, CA. Lyophilized powder was dissolved in water at 1 mg/ml, which was diluted in PBS to 10 μg/mL. During the experiments, mice were maintained on a normal 12 h/12 h light/dark cycle with food and water ad libitum. Mice were fed standard laboratory rodent diet (#5001).
# (§2) In order to see whether the α-MSH analog has an effect on food intake, we compared weight change and food intake in these mice for one week (see bars in FIGS. 4A and 4B) under MSH analog treatment and after MSH analog treatment was stopped (FIGS. 4C and 4D). During one week under MSH analog treatment mutant mice lost 0.5 g, while wildtype littermates gained 0.3 g; the food intake during this time was equivalent in both groups (20.7 g in wildtypes, and 22.7 g in mutants).
# [3] = test system: POMC homozygous mutant female mice; test: Daily intraperitoneal MSH analog in POMC homozygous mutant mice: body weight, food intake, coat pigmentation (Example 2); conditions: for weight loss, % of excess weight by 2 weeks: p<0.05 at day 16
# Method: as §1, §2
# An effect of MSH could also be seen on coat pigmentation. […] Yellow coat pigmentation gradually reappeared after MSH treatment was terminated (data not shown).
# POMC null mutant mice = test: Weight change and food intake under standard diet, MSH analog or high fat diet, POMC null mutant mice (Example 3); conditions: 1 or 2 μg i.p. once daily
# Method: (§3) P values were determined by ANOVA. If the major component of weight regulation through the melanocortinergic pathway was the regulation of feeding behavior, the observed changes in body weight in is POMC null mutant mice should be paralleled by a similar pattern in food uptake. This, however, was not observed (FIGS. 5B and 5D and Table 1).
# wildtype mice = test: Weight change and food intake under standard diet, MSH analog or high fat diet, wildtype mice (Example 3); conditions: 1 or 2 μg i.p. once daily
# Method: as §3
# [4] = test system: ob/ob mutant mice (C57BL/6J-Lep^ob); test: Circulating MSH levels by RIA in ob/ob mutants after leptin (Example 5); conditions: leptin 7 microgram/day i.p.; two hours after the tenth daily injection
# Method: To test the inductive ability of leptin on circulating MSH levels, ob/ob mutants (ob/ob mutant mice (C57BL/6J-Lep^ob) and congenic controls were purchased from the Jackson Laboratory, Bar Harbor, Me.) were treated with leptin (7 microgram/day) or with vehicle alone (Murine recombinant leptin was kindly provided by Dr. A. F Parlow through the National Hormone and Pituitary Program (NHPP); hormones were diluted to 70 micrograms per milliliter in PBS; mice were injected intraperitoneally with 0.1 mL). Two hours after the tenth daily injection, blood samples were drawn from the retro-orbital sinus and analyzed for MSH levels by RIA following the manufacturer's instructions (Peninsula Laboratories, Belmont, Calif.).
# [5] = daily injections of 7 micrograms
molecule,measurement,setting,value
"[Ac-Cys^4, D-Phe^7, Cys^10]α-MSH (4-13) amide [MSH analog]",effect of MSH analog added to leptin on weight,"ob/ob mutant mice [1]; 7 micrograms of each, daily",inability of peripheral MSH analog to supplement the weight reducing effect
same,effect on weight gain compared with effect on food intake,ob/ob mutant mice [1]; [5],greater on weight gain than on food intake
same,weight gain,ob/ob mutant mice [1]; [5],effectively decreased weight gain; also recorded: decreases weight gain
same,core temperature / thermal homeostasis at 4° C.,ob/ob mutant mice [2],maintained their core temperature much better; also recorded: increases thermal homeostasis
same,total weight change over a period of 10 days compared to untreated controls,obese lep^ob/ob mice,slowed weight gain by almost half
same,weight loss in wildtype littermates,wildtype female mice; listed as MSH-agonist,no significant weight loss
same,weight loss in wildtype littermates,wildtype female mice; listed as α-MSH agonist,did not lose significant weight
same,weight gained during one week under MSH analog treatment,"wildtype female mice; second week of treatment, wildtype littermates",0.3 g
same,food intake during one week under MSH analog treatment,"wildtype female mice; second week of treatment, wildtypes",20.7 g
same,weight gain in one week after MSH analog treatment had been stopped for two weeks,"wildtype female mice; third week after termination, wildtype littermates",0.3 g
same,food intake in one week after MSH analog treatment had been stopped for two weeks,"wildtype female mice; third week after termination, wildtypes",24.2 g
same,"weight loss, % of excess weight by 2 weeks","[3]; 1 microgram (~1 nmol) i.p. daily, mutant female mice, listed as MSH-agonist",46 % of excess weight
same,"weight loss, % of excess weight by 2 weeks","[3]; 1 microgram (~1 nmol) i.p. daily, mutant female mice, listed as α-MSH agonist",over 40 % of excess weight
same,"weight loss, % of excess weight within one week","[3]; 1 microgram (~1 nmol) i.p. daily, mutant female mice, p<0.1 at day 8",38 % of excess weight
same,time until mutant mice started to gain weight after MSH injections were stopped,[3]; after 16-day treatment,about 10 days
same,weight regain after MSH injections were stopped,[3]; another two weeks after onset of regain,reached close to their pretreatment weight
same,weight lost during one week under MSH analog treatment,"[3]; second week of treatment, mutant mice",0.5 g
same,food intake during one week under MSH analog treatment,"[3]; second week of treatment, mutants",22.7 g
same,weight gained in one week after MSH analog treatment had been stopped for two weeks,"[3]; third week after termination, mutant mice",1.7 g
same,food intake in one week after MSH analog treatment had been stopped for two weeks,"[3]; third week after termination, mutants",35.7 g
same,excess food intake of mutants over wildtypes after treatment stop,"[3]; third week after termination, p<0.005",11.5 g
same,coat pigmentation,[3]; treated for two weeks,lost their yellowish tinge
same,food intake under MSH analog,POMC null mutant mice,decreases food intake
same,weight change under MSH analog,POMC null mutant mice,lose excess weight
same,food intake under MSH analog,wildtype mice,decreases food intake
same,weight regulation under MSH analog,wildtype mice,maintaining their body weight constant
B1,circulating MSH levels,[4],approached those found in normal control mice; also recorded: induces almost normal levels of circulating MSH
same,weight gain,ob/ob mutant mice [1]; [5],effectively decreased weight gain
same,total weight change over a period of 10 days compared to untreated controls,obese lep^ob/ob mice,little effect on preventing further weight gain
